Results: patent publication US6472348B1, “Pyridone derivatives and herbicides” (Kumiai Chemical Industry Co., Ltd., priority 1996, dated 2002)

Legend:
[1] = tested on: corn (Ze); test: Test Example 7: crop plant selectivity by upland field soil treatment (corn), phytotoxicity; format: in vivo; design: scale not given here; conditions: 21st day after application
In short: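 Values are ratings of herbicidal effect and phytotoxicity on a standard scale, taken 21 days after application. Test species were sown together with corn in sand-filled pots, covered with soil, and grown in a greenhouse.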

[2] = tested on: cotton (Go); test: Test Example 4: crop plant selectivity by upland field soil treatment (cotton), phytotoxicity; format: in vivo; design: scale not given here; conditions: evaluated 21st day after application
In short: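 Upland soil treatment: crop and weed seeds in sand pots under a soil cover, compound applied to soil, greenhouse-grown, rated visually 21 d later.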

[3] = tested on: wheat (Tr); test: Test Example 9: crop plant selectivity by upland field foliage treatment (wheat), phytotoxicity; conditions: dose 1.6 g ai/10a, 14th day after treatment;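 also: grade of crop injury; 5 = at least 90%; 4 = 70 to 90%; 3 = 50 to 70%; 2 = 30 to 50%; 1 = 10 to 30%; 0 = under 10%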
In short: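 Read-out: weed control and wheat injury, rated by a defined scoring standard 14 days after foliar application.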

[4] = tested on: barnyardgrass (Ec); test: Test Example 1: herbicidal effects by paddy field soil treatment; format: in vivo; conditions: 100 g of the active ingredient per 10 ares, 21st day after the application, index 0-5 of Table 47;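 also: grade of growth control; 5 = at least 90%; 4 = 70 to 90%; 3 = 50 to 70%; 2 = 30 to 50%; 1 = 10 to 30%; 0 = under 10%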
In short: (§1)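 Scoring of herbicidal effect came 21 days after application of 100 g active ingredient per 10 ares to flooded (3 cm) paddy-soil pots sown with barnyardgrass, monochoria and bulrush, kept in a greenhouse.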

[5] = tested on: monochoria (Mo); test: as above; format: in vivo; conditions: 100 g of the active ingredient per 10 ares, 21st day after the application, index 0-5 of Table 47;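 also: grade of growth control; 5 = at least 90%; 4 = 70 to 90%; 3 = 50 to 70%; 2 = 30 to 50%; 1 = 10 to 30%; 0 = under 10%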
In short: as §1

[6] = tested on: bulrush (Sc); test: as above; format: in vivo; conditions: 100 g of the active ingredient per 10 ares, 21st day after the application, index 0-5 of Table 47;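 also: grade of growth control; 5 = at least 90%; 4 = 70 to 90%; 3 = 50 to 70%; 2 = 30 to 50%; 1 = 10 to 30%; 0 = under 10%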
In short: as §1

[7] = tested on: soybean (Gl); test: Test Example 6: crop plant selectivity by upland field soil treatment (soybean), phytotoxicity; format: in vivo; design: scale not given here; conditions: 21st day after application
In short: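 Seeds are sown in sand and covered with soil. The soil is treated with test compound. Pots are kept in a greenhouse. Weed control and soybean damage are rated visually 21 days after application.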

[8] = tested on: barnyardgrass (Ec); test: Test Example 3: herbicidal effects by upland field foliage treatment; format: in vivo; design: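 grade of growth control; 5 = at least 90%; 4 = 70 to 90%; 3 = 50 to 70%; 2 = 30 to 50%; 1 = 10 to 30%; 0 = under 10%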
In short: (§2)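 Using plants cultured for 2 weeks in a greenhouse from seed sown in soil-covered sand (pots 120 cm^2), the compounds were applied to foliage, and weed control was graded by standard criteria 14 days thereafter.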

[9] = tested on: slender amaranth (Am); test: as above; format: in vivo; design: scale not given here
In short: as §2

[10] = tested on: common lambsquarters (Ch); test: as above; format: in vivo; design: scale not given here
In short: as §2

[11] = tested on: Diaitaria ciliaris (Di); test: as above; format: in vivo; design: scale not given here
In short: as §2

[12] = tested on: rice flatsedge (Ci); test: as above; format: in vivo; design: scale not given here
In short: as §2

[13] = 100 g active ingredient per 10 ares, evaluated 14th day after treatment
[14] = 100 g of the active ingredient per 10 ares, evaluated on the 14th day after treatment

Row | Structure (SMILES) | Phytotoxicity Ze ([1]; dose 6.3 g ai/10a) | Phytotoxicity Go ([2]; dose 6.3 g ai/10 a) | Phytotoxicity Tr [3] | Herbicidal effects Ec [4] | Herbicidal effects Mo [5] | Herbicidal effects Sc [6] | Phytotoxicity Gl ([7]; dose 6.3 g ai/10a) | Herbicidal effects Ec [8, 13] | Herbicidal effects Am [9, 13] | Herbicidal effects Ch [10, 13] | Herbicidal effects Di [11, 13] | Herbicidal effects Ci [12, 13] | Phytotoxicity Ze ([1]; dose 1.6 g ai/10a) | Phytotoxicity Go ([2]; dose 1.6 g ai/10 a) | Phytotoxicity Gl ([7]; dose 1.6 g ai/10a) | Herbicidal effects Ec [8, 14] | Herbicidal effects Am [9, 14] | Herbicidal effects Ch [10, 14] | Herbicidal effects Di [11, 14] | Herbicidal effects Ci [12, 14]
1 | CCOC(=O)CON=Cc1cc(-c2ccc(C(F)(F)F)n(C)c2=O)c(F)cc1Cl [Compound 1-191] | 1 | 1 | 2 | 5 | 5 | 5 | 2 | 5 | 5 | 5 | 5 | 5 | – | – | – | – | – | – | – | –
2 | C=CC(O)c1cc(-c2ccc(C(F)(F)F)n(C)c2=O)c(F)cc1Cl (centres unmarked) [Compound 1-197] | 1 | 1 | 2 | 5 | 5 | 5 | 1 | 5 | 5 | 5 | 5 | 5 | – | – | – | – | – | – | – | –
3 | C#CC(O)c1cc(-c2ccc(C(F)(F)F)n(C)c2=O)c(F)cc1Cl (centres unmarked) [Compound 1-202] | – | 1 | 2 | 5 | 5 | 5 | – | 5 | 5 | 5 | 5 | 5 | 1 | 1 | 2 | – | – | – | – | –
4 | CSCOc1cc(-c2ccc(C(F)(F)F)n(C)c2=O)c(F)cc1Cl [Compound 1-208] | 1 | 1 | 2 | 5 | 5 | 5 | 2 | 5 | 5 | 5 | 5 | 5 | – | – | – | – | – | – | – | –
5 | C#CCN1C(=O)COc2cc(Cl)c(-c3ccc(C(F)(F)F)n(C)c3=O)cc21 [Compound 2-25] | – | 0 | 2 | 5 | 5 | 5 | 1 | 5 | 5 | 5 | 5 | 5 | 1 | 0 | 0 | – | – | – | – | –
6 | C=CCN1C(=O)COc2cc(Cl)c(-c3ccc(C(F)(F)F)n(C)c3=O)cc21 [Compound 2-26] | 1 | 1 | 2 | 5 | 5 | 5 | 1 | 5 | 5 | 5 | 5 | 5 | – | – | – | – | – | – | – | –
7 | Cc1cc2c(-c3ccc(C(F)(F)F)n(C)c3=O)c(F)cc(Cl)c2o1 [Compound 4-1] | 1 | 1 | 2 | 5 | 5 | 5 | 2 | 5 | 5 | 5 | 5 | 5 | 0 | 0 | 1 | – | – | – | – | –
8 | CCc1cc2c(-c3ccc(C(F)(F)F)n(C)c3=O)c(F)cc(Cl)c2o1 [Compound 4-2] | 1 | 2 | 2 | 5 | 5 | 5 | – | 5 | 5 | 5 | 5 | 5 | 1 | 1 | 1 | – | – | – | – | –
9 | CCCc1cc2c(-c3ccc(C(F)(F)F)n(C)c3=O)c(F)cc(Cl)c2o1 [Compound 4-3] | 1 | 0 | 2 | 5 | 5 | 5 | 1 | 5 | 5 | 5 | 5 | 5 | – | – | – | – | – | – | – | –
10 | CCc1cc2c(Cl)cc(F)c(-c3ccc(C(F)(F)F)n(C)c3=O)c2o1 [Compound 5-2] | 0 | 1 | 2 | 5 | 5 | 5 | 1 | 5 | 5 | 5 | 5 | 5 | – | – | – | – | – | – | – | –
11 | Cn1c(C(F)(F)F)ccc(-c2cc(C#N)c(Cl)cc2F)c1=O [Compound No. 1-119, 3-(4-chloro-5-cyano-2-fluorophenyl)-1-methyl-6-trifluoromethyl-2(1H)-pyridone] | 1 | 0 | 2 | 5 | 5 | 5 | 2 | – | – | – | – | – | – | – | – | 5 | 5 | 5 | 5 | 5
